Assay results from US20250282799A1, “SUBSTITUTED PYRIDO[4,3-d]PYRIMIDINES AS KRAS MODULATORS” (Alterome Therapeutics, Inc., priority 2023, published 2025).

Test system: KRAS G12V dependent lung adenocarcinoma cell line, NCI-H441
Assay: Cellular pERK (Thr202/Tyr204) FRET/HTRF assay
Assay type: cell-based
Settings: Homo sapiens, NCI-H441, cellular pERK (Thr202/Tyr204) HTRF, NCI-H441 cells
Summary of the method: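 NCI-H441 cells (KRAS G12V) were seeded and grown overnight at 37 °C, 5% CO2, then treated with compound in DMSO for 1 hr. Lysates were probed with a Eu3+-cryptate/d2 antibody sandwich against pERK1/2 Thr202/Tyr204 and read by HTRF at 665 nm; IC50 from curve fitting.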

Row | SMILES | IC50
1 | Nc1cc(Cl)c(C(F)(F)F)c(-c2ncc3c(N4CCCC[C@@H]5[C@@H](F)[C@@H]54)nc(OC[C@@]45CCCN4C/C(=C/F)C5)nc3c2F)c1 [Example 372, 3-chloro-5-(8-fluoro-4-((1R,7S,8R)-8-fluoro-2-azabicyclo[5.1.0]octan-2-yl)-2-(((S,E)-2-(fluoromethylene)tetrahydro-1H-pyrrolizin-7a(5H)-yl)methoxy)pyrido[4,3-d]pyrimidin-7-yl)-4-(trifluoromethyl)aniline] | 500 to 10000 nM
2 | C#Cc1c(F)ccc2cccc(-c3ncc4c(N5CCOC[C@H]6[C@H](F)[C@H]65)nc(OC[C@@]56CCCN5C/C(=C\F)C6)nc4c3F)c12 [Example 130, (1S,7S,8S)-2-(7-(8-Ethynyl-7-fluoronaphthalen-1-yl)-8-fluoro-2-(((S,Z)-2-(fluoromethylene)tetrahydro-1H-pyrrolizin-7a(5H)-yl)methoxy)pyrido[4,3-d]pyrimidin-4-yl)-8-fluoro-5-oxa-2-azabicyclo[5.1.0]octane] | < 50 nM
3 | C#Cc1c(F)ccc2cc(O)cc(-c3ncc4c(N5CCCO[C@@H]6C[C@@H]65)nc(OC[C@@]5(C)CCCN5)nc4c3F)c12 [Example 282, 4-(4-((1R,7S)-2-oxa-6-azabicyclo[5.1.0]octan-6-yl)-8-fluoro-2-(((R)-2-methylpyrrolidin-2-yl)methoxy)pyrido[4,3-d]pyrimidin-7-yl)-5-ethynyl-6-fluoronaphthalen-2-ol] | 500 to 10000 nM
4 | C#Cc1c(F)ccc2cc(N)cc(-c3ncc4c(N5CCOC[C@H]6[C@H](F)[C@H]65)nc(OC[C@]56CC7(CC7)CN5CCC65CC5)nc4c3F)c12 [Example 206, 4-(2-(((R)-Dihydro-5′H-dispiro[cyclopropane-1,1′-pyrrolizine-6′,1″-cyclopropan]-7a′(7′H)-yl)methoxy)-8-fluoro-4-((1S,7S,8S)-8-fluoro-5-oxa-2-azabicyclo[5.1.0]octan-2-yl)pyrido[4,3-d]pyrimidin-7-yl)-5-ethynyl-6-fluoronaphthalen-2-amine] | < 50 nM
5 | C#Cc1c(Cl)ccc2cc(N)cc(-c3ncc4c(N5CCOC[C@H]6[C@H](F)[C@H]65)nc(OC[C@@H]5CCCN5C)nc4c3F)c12 [Example 296, 6-chloro-5-ethynyl-4-(8-fluoro-4-((1S,7S,8S)-8-fluoro-5-oxa-2-azabicyclo[5.1.0]octan-2-yl)-2-(((S)-1-methylpyrrolidin-2-yl)methoxy)pyrido[4,3-d]pyrimidin-7-yl)naphthalen-2-amine] | < 50 nM
6 | [2H]C([2H])(F)Oc1c(F)c(F)cc2cc(N)cc(-c3ncc4c(N5CCOC[C@H]6[C@H](F)[C@H]65)nc(OC[C@@]56CCCN5C/C(=C\F)C6)nc4c3F)c12 [Example 162, 6,7-Difluoro-4-(8-fluoro-4-((1S,7S,8S)-8-fluoro-5-oxa-2-azabicyclo[5.1.0]octan-2-yl)-2-(((S,Z)-2-(fluoromethylene)tetrahydro-1H-pyrrolizin-7a(5H)-yl)methoxy)pyrido[4,3-d]pyrimidin-7-yl)-5-(fluoromethoxy-d2)naphthalen-2-amine] | < 50 nM
7 | C#Cc1c(F)ccc2cc(N)cc(-c3ncc4c(N5CCOC[C@H]6[C@H](F)[C@H]65)nc(OC[C@]56C[C@@H](F)CN5C[C@@H](CNC(C)=O)C6)nc4c3F)c12 [Example 257, N-(((2R,6R,7aS)-7a-(((7-(3-amino-8-ethynyl-7-fluoronaphthalen-1-yl)-8-fluoro-4-((1S,7S,8S)-8-fluoro-5-oxa-2-azabicyclo[5.1.0]octan-2-yl)pyrido[4,3-d]pyrimidin-2-yl)oxy)methyl)-6-fluorohexahydro-1H-pyrrolizin-2-yl)methyl)acetamide] | 50 to 500 nM

Other lines, results leading:

Row | IC50 | SMILES
8 | < 50 nM | [2H]C1([2H])CC2(CC2)[C@]2(C([2H])([2H])Oc3nc(N4CCOC[C@H]5[C@H](F)[C@H]54)c4cnc(-c5cc(N)cc6ccc(F)c(C#C)c56)c(F)c4n3)C[C@@]([2H])(F)CN12 (single isomer, unassigned) [Example 205]
9 | < 50 nM | [2H]C([2H])(Oc1nc(N2CCCC[C@H]3[C@H](F)[C@H]32)c2cnc(-c3cncc4ccc(F)c(OC)c34)c(F)c2n1)[C@@]12CCCN1C[C@H](F)C2 [Example 98, 8-Fluoro-7-(6-fluoro-5-methoxyisoquinolin-4-yl)-4-((1S,7R,8S)-8-fluoro-2-azabicyclo[5.1.0]octan-2-yl)-2-(((2R,7aS)-2-fluorotetrahydro-1H-pyrrolizin-7a(5H)-yl)methoxy-d2)pyrido[4,3-d]pyrimidine]
10 | 50 to 500 nM | [2H]C([2H])(F)Oc1c(F)ccc2cccc(-c3ncc4c(N5CCCC[C@H]6[C@H](F)[C@H]65)nc(OC[C@]56CC(=C(F)F)CN5CCC65CC5)nc4c3F)c12 [Example 413, (R)-6′-(difluoromethylene)-7a′-(((8-fluoro-7-(7-fluoro-8-(fluoromethoxy-d2)naphthalen-1-yl)-4-((1S,7R,8S)-8-fluoro-2-azabicyclo[5.1.0]octan-2-yl)pyrido[4,3-d]pyrimidin-2-yl)oxy)methyl)hexahydrospiro [cyclopropane-1,1′-pyrrolizine]]
11 | < 50 nM | [2H]C([2H])(Oc1nc(N2CCOC[C@H]3[C@H](F)[C@H]32)c2cnc(-c3cc(N)cc4ccc(F)c(C=C)c34)c(F)c2n1)[C@@]12CCCN1C[C@H](F)C2 [Example 199, 6-Fluoro-4-(8-fluoro-4-((1S,7S,8S)-8-fluoro-5-oxa-2-azabicyclo[5.1.0]octan-2-yl)-2-(((2R,7aS)-2-fluorotetrahydro-1H-pyrrolizin-7a(5H)-yl)methoxy-d2)pyrido[4,3-d]pyrimidin-7-yl)-5-vinylnaphthalen-2-amine]
12 | < 50 nM | [2H]C([2H])(Oc1nc(N2CCOC[C@H]3[C@H](F)[C@H]32)c2cnc(-c3cc(N)cc4ccc(F)c(C#C)c34)c(F)c2n1)C12CCCN1CCC2 [Example 213, 5-ethynyl-6-fluoro-4-(8-fluoro-4-((1S,7S,8S)-8-fluoro-5-oxa-2-azabicyclo[5.1.0]octan-2-yl)-2-((tetrahydro-1H-pyrrolizin-7a(5H)-yl)methoxy-d2)pyrido[4,3-d]pyrimidin-7-yl)naphthalen-2-amine]

Same assay, conditions: Homo sapiens, NCI-H441, cellular pERK HTRF, NCI-H441 (KRAS G12V) cells

Row | IC50 | SMILES
13 | < 50 nM | [2H]C([2H])(Oc1nc(N2CCOC[C@H]3[C@H](F)[C@H]32)c2cnc(-c3cc(O)cc4ccc(F)c(C#C)c34)c(C)c2n1)[C@@]12CCCN1C[C@H](F)C2 [Example 445, 5-Ethynyl-6-fluoro-4-(4-((1S,7S,8S)-8-fluoro-5-oxa-2-azabicyclo[5.1.0]octan-2-yl)-2-(((2R,7aS)-2-fluorotetrahydro-1H-pyrrolizin-7a(5H)-yl)methoxy-d2)-8-methylpyrido[4,3-d]pyrimidin-7-yl)naphthalen-2-ol]

Same assay, conditions: Homo sapiens, NCI-H441, pERK HTRF, NCI-H441 cells (KRAS G12V)

Row | IC50 | SMILES
14 | < 50 nM | [2H]C([2H])(Oc1nc(N2CCOC[C@H]3[C@@H](F)[C@H]32)c2cnc(-c3cc(N)cc4cc(F)c(F)c(C#C)c34)c(F)c2n1)[C@@]12CCCN1C[C@H](F)C2 [Example 30, 5-Ethynyl-6,7-difluoro-4-(8-fluoro-4-((1S,7S,8R)-8-fluoro-5-oxa-2-azabicyclo[5.1.0]octan-2-yl)-2-(((2R,7aS)-2-fluorotetrahydro-1H-pyrrolizin-7a(5H)-yl)methoxy-d2)pyrido[4,3-d]pyrimidin-7-yl)naphthalen-2-amine]
15 | 500 to 10000 nM | C#Cc1c(F)ccc2cc(O)cc(-c3ncc4c(N5CCCC[C@@H]6C[C@@H]65)nc(OC[C@@]56CCCN5C[C@H](F)C6)nc4c3F)c12 [Example 1, 4-(4-((1S,7R)-2-Azabicyclo[5.1.0]octan-2-yl)-8-fluoro-2-(((2R,7aS)-2-fluorotetrahydro-1H-pyrrolizin-7a(5H)-yl)methoxy)pyrido[4,3-d]pyrimidin-7-yl)-5-ethynyl-6-fluoronaphthalen-2-ol]
16 | < 50 nM | C#Cc1c(F)ccc2cc(O)cc(-c3ncc4c(N5CCCC6CC6C5)nc(OC[C@@]56CCCN5C[C@H](F)C6)nc4c3F)c12 (stereo partly drawn) [Example 12, 4-(4-(3-Azabicyclo[5.1.0]octan-3-yl)-8-fluoro-2-(((2R,7aS)-2-fluorotetrahydro-1H-pyrrolizin-7a(5H)-yl)methoxy)pyrido[4,3-d]pyrimidin-7-yl)-5-ethynyl-6-fluoronaphthalen-2-ol]
17 | < 50 nM | [2H]C([2H])(F)Oc1c(F)c(F)cc2cc(N)cc(-c3ncc4c(N5CCCC[C@H]6[C@H](F)[C@H]65)nc(OC([2H])([2H])[C@@]56CCCN5C[C@H](F)C6)nc4c3F)c12 [Example 71, 6,7-Difluoro-4-(8-fluoro-4-((1S,7R,8S)-8-fluoro-2-azabicyclo[5.1.0]octan-2-yl)-2-(((2R,7aS)-2-fluorotetrahydro-1H-pyrrolizin-7a(5H)-yl)methoxy-d2)pyrido[4,3-d]pyrimidin-7-yl)-5-(fluoromethoxy-d2)naphthalen-2-amine]

Same assay, conditions: cellular pERK (Thr202/Tyr204) HTRF, NCI-H441 cells

Row | IC50 | SMILES
18 | < 50 nM | [2H]C([2H])(Oc1nc(N2CCOC[C@H]3[C@H](F)[C@H]32)c2cc(F)c(-c3cc(N)cc4ccc(F)c(C#C)c34)c(F)c2n1)[C@@]12CCCN1C[C@H](F)C2 [Example 355, 4-(6,8-difluoro-4-((1S,7S,8S)-8-fluoro-5-oxa-2-azabicyclo[5.1.0]octan-2-yl)-2-(((2R,7aS)-2-fluorotetrahydro-1H-pyrrolizin-7a(5H)-yl)methoxy-d2)quinazolin-7-yl)-5-ethynyl-6-fluoronaphthalen-2-amine]

Same assay, conditions: cellular pERK HTRF, NCI-H441 (KRAS G12V) cells

Row | IC50 | SMILES
19 | < 50 nM | [2H]C([2H])(Oc1nc(N2CCOC[C@H]3[C@H](F)[C@H]32)c2cc(C(F)(F)F)c(-c3cccc4sc(N)c(C#N)c34)c(F)c2n1)[C@@]12CCCN1C[C@H](F)C2 (atropisomer, axis not shown; (aS)) [Example 468, 2-amino-4-((R)-8-fluoro-4-((1S,7S,8S)-8-fluoro-5-oxa-2-azabicyclo[5.1.0]octan-2-yl)-2-(((2R,7aS)-2-fluorotetrahydro-1H-pyrrolizin-7a(5H)-yl)methoxy-d2)-6-(trifluoromethyl)quinazolin-7-yl)benzo[b]thiophene-3-carbonitrile]
